How the values were obtained:
crabgrass, large = assay: Test C postemergence; assay type: in vivo, Digitaria sanguinalis; settings: for Plant response rating (scale of 0 to 100 where 0 is no effect and 100 is complete control), Crabgrass, Large: Postemergence, 31 g ai/ha, visually evaluated after 13 to 15 days; for Crabgrass, Large plant response rating / Plant response rating, Crabgrass, Large: postemergence; for Crabgrass, Large plant response rating: 62 g ai/ha, scale 0 to 100
Method in brief: (§1)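 Scores of 0 (no effect) to 100 (complete control) were assigned by eye after 13–15 days, comparing treated pots with controls. Soil-applied (preemergence) treatments went onto seeds in loam and sand; foliar (postemergence) treatments onto 1- to 4-leaf plants in peat medium.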

barnyardgrass [1] = assay: Test C postemergence; assay type: in vivo, Echinochloa crus-galli; settings: for Plant response rating (scale of 0 to 100 where 0 is no effect and 100 is complete control), Barnyardgrass: Postemergence, 31 g ai/ha, visually evaluated after 13 to 15 days; for Barnyardgrass plant response rating / Plant response rating, Barnyardgrass: postemergence; for Barnyardgrass plant response rating: 62 g ai/ha, scale 0 to 100
Method in brief: as §1

barnyardgrass [2] = assay: Test A preemergence; assay type: in vivo, Echinochloa crus-galli; settings: preemergence; for Barnyardgrass plant response rating (0 to 100 scale, 0 is no effect, 100 is complete control): 125 g ai/ha, visual injury approx. 10 days after treatment; for Barnyardgrass plant response rating: 500 g ai/ha, visual injury after approx. 10 days, 0 to 100 scale (0 no effect, 100 complete control)
Method in brief: (§2)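 Both timings tested concurrently in loam/sand soil: preemergence by directed soil spray, postemergence on plants of 2–10 cm at the one- to two-leaf stage. Greenhouse holding period was approximately 10 days before visual injury assessment (0–100, 0 = no effect).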

barnyardgrass [3] = assay: Test A postemergence; assay type: in vivo, Echinochloa crus-galli
Method in brief: as §2

oat, wild = assay: Test C postemergence; assay type: in vivo, Avena fatua; settings: for Plant response rating (scale of 0 to 100 where 0 is no effect and 100 is complete control), Oat, Wild: Postemergence, 31 g ai/ha, visually evaluated after 13 to 15 days; for Oat, Wild plant response rating / Plant response rating, Oat, Wild: postemergence; for Oat, Wild plant response rating: 62 g ai/ha, scale 0 to 100
Method in brief: as §1

corn = assay: Test A postemergence; assay type: in vivo, Zea mays
Method in brief: as §2

foxtail, giant = assay: Test C preemergence; assay type: in vivo, Setaria faberii; settings: preemergence; for Plant response rating, Foxtail, Giant: 125 g ai/ha, scale 0 to 100, 0 = no effect, 100 = complete control
Method in brief: as §1

pigweed = assay: Test A postemergence; assay type: in vivo, Amaranthus retroflexus; settings: Postemergence
Method in brief: as §2

rice = assay: Test B flood; assay type: in vivo, Oryza sativa; settings: 250 g ai/ha, visual rating on 0 to 100 scale (0 no effect, 100 complete control), 13 to 15 days
Method in brief: (§3)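 At two leaves, seedlings received the test compound via the paddy water, pots having been flooded 3 cm over the soil surface and kept so. Greenhouse-held for 13 to 15 days, then judged by eye against controls on a scale running 0 (no effect) to 100 (complete control).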

blackgrass = assay: Test C preemergence; assay type: in vivo, Alopecurus myosuroides; settings: preemergence; for Plant response rating, Blackgrass: 125 g ai/ha, scale 0 to 100, 0 = no effect, 100 = complete control
Method in brief: as §1

ducksalad = assay: Test B flood; assay type: in vivo, Heteranthera limosa; settings: 250 g ai/ha, visual rating on 0 to 100 scale (0 no effect, 100 complete control), 13 to 15 days
Method in brief: as §3

ragweed [4] = assay: Test C postemergence; assay type: in vivo, Ambrosia elation; settings: postemergence
Method in brief: as §1

ragweed [5] = assay: Test C preemergence; assay type: in vivo, Ambrosia elation; settings: preemergence; for Plant response rating, Ragweed: 125 g ai/ha, scale 0 to 100, 0 = no effect, 100 = complete control
Method in brief: as §1

[6] = 250 g ai/ha, scale 0 to 100 (0 no effect, 100 complete control)
[7] = 125 g ai/ha, scale 0 to 100, 0 no effect, 100 complete control
[8] = Postemergence, 500 g ai/ha, 0 to 100 scale (0 no effect, 100 complete control)
[9] = postemergence, 125 g ai/ha, about 10 days, visual rating on 0 to 100 scale (0 no effect, 100 complete control)
[10] = 31 g ai/ha, visual rating, scale 0 to 100 (0 no effect, 100 complete control), 13 to 15 days
[11] = 62 g ai/ha, scale 0 to 100 (0 no effect, 100 complete control), 13 to 15 days
[12] = 250 g ai/ha, scale 0 to 100, 0 is no effect, 100 is complete control
[13] = 125 g ai/ha, 0 to 100 scale, 0 no effect, 100 complete control
[14] = 500 g ai/ha, 0 to 100 scale (0 no effect, 100 complete control)

Structure (SMILES) | Plant response rating (scale of 0 to 100 where 0 is no effect and 100 is complete control), Crabgrass, Large (crabgrass, large) | Crabgrass, Large plant response rating (crabgrass, large) | Plant response rating, Crabgrass, Large (crabgrass, large; [6]) | Plant response rating, Crabgrass, Large (crabgrass, large; [7]) | Plant response rating (scale of 0 to 100 where 0 is no effect and 100 is complete control), Barnyardgrass (barnyardgrass [1]) | Barnyardgrass plant response rating (barnyardgrass [1]) | Plant response rating, Barnyardgrass (barnyardgrass [1]; [6]) | Plant response rating, Barnyardgrass (barnyardgrass [1]; [7]) | Barnyardgrass plant response rating (0 to 100 scale, 0 is no effect, 100 is complete control) (barnyardgrass [2]) | Barnyardgrass plant response rating (barnyardgrass [2]) | Barnyardgrass plant response rating (barnyardgrass [3]; [8]) | Barnyardgrass plant response rating (barnyardgrass [3]; [9]) | Plant response rating (scale of 0 to 100 where 0 is no effect and 100 is complete control), Oat, Wild (oat, wild) | Oat, Wild plant response rating (oat, wild) | Plant response rating, Oat, Wild (oat, wild; [6]) | Plant response rating, Oat, Wild (oat, wild; [7]) | Corn plant response rating (corn; [8]) | Corn plant response rating (corn; [9]) | Foxtail, Giant plant response rating (foxtail, giant; [10]) | Foxtail, Giant plant response rating (foxtail, giant; [11]) | other results
CCNC(=O)c1cc(CC)n(Cc2ccnc(C(F)(F)F)c2)n1 [Compound 196] | 5 | 5 | 25 | 10 | 5 | 5 | 35 | 20 | 90 | 100 | 90 | 90 | 5 | 5 | 15 | 10 | 90 | 80 | 98 | 100 | Plant response rating, Foxtail, Giant (foxtail, giant; 13 to 15 days): 100; Foxtail, Giant plant response rating (foxtail, giant; [12]): 100; Pigweed plant response rating (pigweed; [13]): 100; Pigweed plant response rating (pigweed; [14]): 100; Plant response rating, Rice (rice): 20; Blackgrass plant response rating (blackgrass; [10]): 85; Blackgrass plant response rating (blackgrass; [11]): 90; Plant response rating, Blackgrass (blackgrass; 13 to 15 days): 90; Blackgrass plant response rating (blackgrass; [12]): 90; Plant response rating, Ducksalad (ducksalad): 80; Plant response rating, Ragweed (ragweed [4]; [6]): 40; Plant response rating, Ragweed (ragweed [4]; [7]): 15; Ragweed plant response rating (ragweed [5]; [10]): 85; Ragweed plant response rating (ragweed [5]; [11]): 90; Plant response rating, Ragweed (ragweed [5]; 13 to 15 days): 98; Ragweed plant response rating (ragweed [5]; [12]): 98
Cc1cc(C(=O)NC(C)C)nn1Cc1ccnc(C(F)(F)F)c1 [Compound 197] | 5 | 5 | 15 | 10 | 0 | 0 | 10 | 5 | 90 | 100 | 100 | 80 | 0 | 0 | 5 | 5 | 90 | 30 | 65 | 98 | Plant response rating, Foxtail, Giant (foxtail, giant; 13 to 15 days): 100; Foxtail, Giant plant response rating (foxtail, giant; [12]): 100; Pigweed plant response rating (pigweed; [13]): 100; Pigweed plant response rating (pigweed; [14]): 100; Plant response rating, Rice (rice): 10; Blackgrass plant response rating (blackgrass; [10]): 0; Blackgrass plant response rating (blackgrass; [11]): 85; Plant response rating, Blackgrass (blackgrass; 13 to 15 days): 90; Blackgrass plant response rating (blackgrass; [12]): 90; Plant response rating, Ducksalad (ducksalad): 95; Plant response rating, Ragweed (ragweed [4]; [6]): 55; Plant response rating, Ragweed (ragweed [4]; [7]): 40; Ragweed plant response rating (ragweed [5]; [10]): 60; Ragweed plant response rating (ragweed [5]; [11]): 85; Plant response rating, Ragweed (ragweed [5]; 13 to 15 days): 95; Ragweed plant response rating (ragweed [5]; [12]): 98

Source: patent publication US20150105252A1, “SUBSTITUTED PYRAZOLES AS HERBICIDES” (E I DU PONT DE NEMOURS AND COMPANY, priority 2013, published 2015)
